Measured values published in the supplement of paper PMC10290057.
Counter-ions that a name gives are not always drawn.

Experiments:
[1] = tested on: HCT116; experiment: AC50 cell viability (CellTiter-Glo); higher = less potent; conditions: 48 h
[2] = tested on: HCT116; experiment: efficacy (fitted maximal change in viability relative to DMSO control); higher = less cytotoxic (negative = loss of viability); conditions: 48 h
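For AC50 cell viability (CellTiter-Glo) in this document: HCT116 colorectal carcinoma cells screened at five concentrations per compound, luminescent viability scaled between DMSO wells and empty wells on each plate, curves fitted per compound.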
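For efficacy (fitted maximal change in viability relative to DMSO control) in this document: Luminescence-based viability readout, five doses per compound, normalized against on-plate DMSO and empty-well controls, followed by dose-response curve fitting for every drug.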

SMILES	AC50 cell viability [1]	efficacy [2]
Nc1ccccc1NC(=O)c1ccc(CNc2nccc(-c3cccnc3)n2)cc1 [Mocetinostat]	0.934 µM	-73.2%
COC1=C(OC)C=C2C(=C1)C(=O)N(CCCN3CCOCC3)\C4=C2\C(=O)C5=C4C=C6OCOC6=C5 [Indotecan hydrochloride (LMP-400)]	2.09 µM	-88.1%
CN1CCC(CC1)=C2C3=C(C=CC=C3)\C=C/C4=C2C=CC=C4 [Cyproheptadine hydrochloride]	23.5 µM	-81.9%
Cn1ncc(Cl)c1-c1cc(C(=O)NC(CN)Cc2ccc(F)c(F)c2)oc1Cl (configuration not stated)	13.2 µM	-117%
O=C1NC(=O)[C@@H](c2c[nH]c3ccccc23)[C@H]1c1cn2c3c(cccc13)CCC2 [Tivantinib (ARQ 197)]	0.934 µM	-62.9%
C=CC(=O)Nc1cccc(Nc2nc(Nc3ccc(NC4CN(CCF)C4)cc3OC)ncc2C(F)(F)F)c1 [CNX-2006]	10.5 µM	-105%
CC(C)c1cc(C(=O)N2Cc3ccc(CN4CCN(C)CC4)cc3C2)c(O)cc1O [Onalespib]	0.118 µM	-54.3%
N#CC(c1ccnc(NCCc2cccnc2)n1)c1nc2ccccc2s1 (configuration not stated) [JNK Inhibitor V]	8.33 µM	-92.2%
Cc1ccc([C@@H]2O[C@H](CO)[C@@H](O)[C@H](O)[C@H]2O)cc1Cc1ccc(-c2ccc(F)cc2)s1 [Canagliflozin]	23.5 µM	-83.7%
COc1cc(C(=O)N2CCC(N3CCN(C)CC3)CC2)ccc1Nc1ncc2c(n1)N(C)c1ccccc1C(=O)N2C [LRRK2-IN-1]	6.61 µM	-94.6%
COc1ccc(CNc2nc(N(CCO)CCO)nc3c2ncn3C(C)C)cc1 [CVT-313]	3.32 µM	-54.3%
CC(C)(O)C[S+](=O)([O-])Nc1ccc2c(c1)CCN(C(=O)COc1cccnc1)C2 [NAMPT-IN-1]	0.0468 µM	-92.6%
Cc1cc(C[S+](=O)([O-])c2ccccc2)cc(OCc2ccc(CN3CCC[C@@H]3CO)cc2)c1 [PF-543]	16.6 µM	-92.7%
COc1ccc(Nc2cc(-c3cnc(N)nc3)nc(N3CCOCC3)n2)cn1 [NIBR-17]	2.63 µM	-65.5%
Fc1cc(-c2cccc3ncc(-c4cnn(C5CCNCC5)c4)nc23)cc(F)c1CN1CCOCC1 [NVP-BSK805]	8.33 µM	-91%
C\C1=C(\[C@@H](OC2=C1C=CC(=C2)O)C3=CC=C(OCCN4CCCCC4)C=C3)C5=CC=C(O)C=C5 [Acolbifene]	18.6 µM	-94.9%
CC(C)C1NC(=O)C(NC(=O)C2=C3\N=C\4/C(=C(C)\C(=O)\C(=C4C(=O)NC5C(C)OC(=O)C(C(C)C)N(C)C(=O)CN(C)C(=O)C6CCCN6C(=O)C(NC5=O)C(C)C)N)OC3=C(C)C=C2)C(C)OC(=O)C(C(C)C)N(C)C(=O)CN(C)C(=O)C7CCCN7C1=O (configuration not stated) [Actinomycin D]	0.00144 µM	-73.8%
COC\1=C(/OC)C(=O)\C(=C(C)/C1=O)CCCCCCCCCCO [Idebenone]	18.6 µM	-54.9%
C=CC(=O)Nc1cccc(Oc2nc(Nc3ccc(N4CCN(C)CC4)cc3OC)ncc2Cl)c1 [WZ-4002]	11.8 µM	-96.5%

SMILES	AC50 cell viability [1]	efficacy [2]
CCCOc1ccc2[nH]c(NC(=O)OC)nc2c1 [Oxibendazole]	0.295 µM	-64.9%
O=C(CCCCCCNC(=O)c1cnc(N(c2ccccc2)c2ccccc2)nc1)NO [ACY-1215]	7.42 µM	-93.5%
COc1cc(N2CCN(C)CC2)ccc1Nc1ncc2c(n1)N(C)c1ccccc1C(=O)N2 [XMD8-87]	18.6 µM	-92.7%
CCOC(=O)N1CCN(/[N+]([O-])=N/Oc2ccc([N+](=O)[O-])cc2[N+](=O)[O-])CC1	18.6 µM	-71.8%
COc1ccc2nc3[nH]nc(C)c3c(NCCOCCO)c2c1	18.6 µM	-82.9%
N#Cc1ccc(Cn2cncc2CN2CCN(c3cccc(Cl)c3)C(=O)C2)cc1	0.332 µM	-46%
CC(C)[N]1C=C(C)C2=C1C=C(C=C2C(=O)NC\C3=C(C)\C=C(C)/NC3=O)C4=CC=C(N=C4)N5CCN(C)CC5	20.9 µM	-96.9%
C[C@H](NC(=O)CCC(F)(F)F)C(=O)N[C@@H]1C(=O)N(CCO)c2ncccc2-c2ccccc21 [Crenigacestat]	0.332 µM	-44.7%
O=C1Nc2cc(Br)ccc2/C1=C1/Nc2ccccc2/C1=N\O [BIO]	10.5 µM	-102%
CNC(=O)c1ccccc1Sc1ccc2c(/C=C/c3ccccn3)n[nH]c2c1 [Axitinib]	14.8 µM	-80.4%
O=C(Nc1ccc2[nH]nc(-c3ccncc3)c2c1)[C@@H]1CCN(CC(=O)N2CCN(c3ccc(-c4ncccn4)cc3)CC2)C1	0.295 µM	-64.3%
NC(=O)[C@H]1CCS[C@@H]2C[C@]3(CCCN3C(=O)Cc3ccc(NC(=O)COc4ccc(Cl)cc4Cl)cc3)C(=O)N12 [ST-2825]	10.5 µM	-68.6%
COc1ccc(-c2cc3nccn3c(Nc3ncccc3C(N)=O)n2)cc1OC [BAY61-3606]	4.17 µM	-66.9%
CCCCCCC(C)(C)C1=CC2=C([C@H]3CC(=C/CC3C(C)(C)O2)\CO)C(=C1)O (some centres not stated) [Dexanabinol]	8.33 µM	-93.9%
O=C(NC[C@H](O)CO)c1ccncc1Nc1ccc(I)cc1F [Pimasertib]	0.118 µM	-44.3%
CNCCN(C)Cc1c[nH]nc1-c1ccc(O[C@H]2C[C@H](OCCC3CCOCC3)C2)cc1	18.6 µM	-52%
COc1cc2c(N3CCN(C(=O)Nc4ccc(OC(C)C)cc4)CC3)ncnc2cc1OCCCN1CCCCC1 [Tandutinib]	18.6 µM	-76%
C#Cc1cccc(Nc2ncnc3cc(OCCOC)c(OCCOC)cc23)c1 [Erlotinib]	9.34 µM	-47.1%
C[C@]\12CC[C@H](O)CC1=C/CC3C2CC[C@@]\4(C)C3C\C=C4[N]5C=NC6=C5C=CC=C6 (some centres not stated) [Galeterone]	5.9 µM	-43.8%

SMILES	AC50 cell viability [1]	efficacy [2]
C[N]1C=C(C2=CC=CC=C12)\C3=C(\C(=O)NC3=O)C4=C[N](C5CCN(CC5)CC6=NC=CC=C6)C7=C4C=CC=C7 [Enzastaurin]	14.8 µM	-56.4%
N#C/C(=C(/N)Sc1ccc(N)cc1)c1ccccc1C(F)(F)F [SL-327]	13.2 µM	-80.4%
C[C@@H]1CC[C@H]2[C@@H](C)C(=O)O[C@@H]3O[C@@]4(C)CC[C@@H]1[C@]32OO4 [Artemisinin]	0.0295 µM	-30.7%
CCC(CC)C(c1ccc(Nc2nc3ccccc3s2)cc1)n1cncn1 (stereo not drawn) [Talarozole (R enantiomer)]	20.9 µM	-96.4%
ClC1=CC\2=C(NC(=O)\C(=C2N[C@@H]3CN4CCC3CC4)C5=NC6=C([NH]5)C=CC=C6)C=C1 [CHIR-124]	0.833 µM	-80.9%
O=C(C1CC1)N1CC[C@@H](Cn2c(-c3ccc(-c4ccc5occc5c4)cc3)nc3cnccc32)C1	23.5 µM	-66.1%
COC(=O)C/1=C(C)/N/C(=C(\C1C2=CC(=CC=C2)[N+]([O-])=O)C(=O)OCCCN3CCC(CC3)(C4=CC=CC=C4)C5=CC=CC=C5)C (configuration not stated) [Niguldipine]	8.33 µM	-98.1%
CS[C@H]1SC[C@@H]2C(=O)N(C)[C@H](C(C)C)C(=O)OC[C@H](NC(=O)c3cnc4ccccc4n3)C(=O)N[C@H](C)C(=O)N(C)[C@H]1C(=O)N(C)[C@H](C(C)C)C(=O)OC[C@H](NC(=O)c1cnc3ccccc3n1)C(=O)N[C@H](C)C(=O)N2C [Echinomycin]	0.00372 µM	-72.6%
OC(=O)/C1=C/CCN(CCOC(C2=CC=C(C=C2)C(F)(F)F)C3=CC=C(C=C3)C(F)(F)F)C1 [CI-966]	18.6 µM	-37.1%
CCCc1cc(C(=O)N[C@H](Cc2ccc(-c3cccc(OC(F)(F)F)c3)nc2)C(=O)N[C@@H]2CCNC2)sc1C [AZ-82]	8.33 µM	-97.3%
C=CC(=O)Nc1cccc(Nc2nc(Nc3ccc(N4CCN(C(C)=O)CC4)cc3OC)ncc2C(F)(F)F)c1 [Rociletinib]	8.33 µM	-112%
CO[C@H]1/C=C\C=C(\C)C(=O)NC2=CC(=O)C(NCCN(C)C)=C(C[C@@H](C)C[C@H](OC)[C@H](O)[C@@H](C)/C=C(/C)[C@@H]1OC(N)=O)C2=O [Alvespimycin hydrochloride]	0.372 µM	-92.8%
OC[C@H](Cc1ccccc1)Nc1nc(Oc2ccc3c(c2)CCC3)nc2c1ncn2Cc1ccc(-c2ccccc2)cc1 [QS11]	9.34 µM	-49.7%
C[C@@H](NC1=CC=CC=C1C(O)=O)C/2=C/C(=C\N3C(=O)/C=C(\N=C23)N4CCOCC4)C [AZD-6482]	10.5 µM	-52.7%
COC(=O)Nc1ccc(-c2nc(N3CCOCC3)c3cnn(C4CCN(C(=O)OC)CC4)c3n2)cc1 [WYE-354]	1.32 µM	-56.3%
O=C(NO)C1(C[S+](=O)([O-])c2ccc(Oc3ccc(Cl)cc3)cc2)CCOCC1 [CTS-1027]	20.9 µM	-61.5%
N#CC[C@H](C1CCCC1)n1cc(-c2ncnc3[nH]ccc23)cn1 [Ruxolitinib]	11.8 µM	-67.4%
N#Cc1c(C2CCNCC2)cc(-c2c(O)cccc2OCC2CC2)nc1N [IKK-2 Inhibitor VIII]	10.5 µM	-89.2%
